Measurements from patent US12023345B2, “Compositions and methods for treating lysosomal disorders” (RUSH UNIVERSITY MEDICAL CENTER, priority 2014, dated 2024).

How the values were obtained:
[1] = at high doses; cited from earlier work
Tfeb = experiment: TFEB protein by immunoblot in mouse primary astrocytes; type: cell-based; settings: aspirin 2 and 5 μM, 12 h, serum-free
Experimental: Isolation of Primary Mouse Astroglia: Astroglia were isolated from mixed glial cultures as described (24, 25) according to the procedure of Giulian and Baker (26). Briefly, on day 9, the mixed glial cultures were washed three times with Dulbecco's modified Eagle's medium/F-12 and subjected to shaking at 240 rpm for 2 h at 37° C. on a rotary shaker to remove microglia. After 2 days, the shaking was repeated for 24 h for the removal of oligodendroglia and to ensure the complete removal of all nonastroglial cells. The attached cells were seeded onto new plates for further studies. Immunoblotting: Western blotting was conducted as described earlier (31, 32) with modifications. Briefly, cells were scraped in 1× RIPA buffer, protein was measured using Bradford reagent and sodium dodecyl sulfate (SDS) buffer was added and electrophoresed on NuPAGE® Novex® 4-12% Bis-Tris gels (Invitrogen) and proteins transferred onto a nitrocellulose membrane (Bio-Rad) using the Thermo-Pierce Fast Semi-Dry Blotter. The membrane was then washed for 15 min in TBS plus Tween 20 (TBST) and blocked for 1 hr in TBST containing BSA. […] Densitometric Analysis: Protein blots were analyzed using ImageJ (NIH, Bethesda, Md.) and bands were normalized to their respective β-actin loading controls. […]

[2] = system: PPAR luciferase reporter (PPRE-x3-TK-luc); experiment: PPAR luciferase reporter (PPRE-x3-TK-luc) in astrocytes; type: cell-based, mouse; settings: different doses of aspirin, 4 h
Experimental: FIG. 14(A)-(B) illustrates activation of PPARα by aspirin in primary mouse astrocytes. 14(A) Cells were treated with 5 μM aspirin for different min intervals followed by isolation of nuclear extracts and electrophoretic mobility shift assay for monitoring DNA-binding activity of PPARα using PPARα-binding site of the Tfeb promoter as a probe. 14(B) Astrocytes isolated from wild type, PPARα (−/−) and PPARβ (−/−) mice were transfected with PPAR luciferase reporter (PPRE-x3-TK-luc) plasmid and after 24 h of transfection, cells were stimulated with different doses of aspirin. After 4 h, firefly luciferase activity was measured in total cell extracts. Results are mean +SD of three different experiments. ^ap<0.001 vs control.

mouse primary astrocytes = experiment: LysoTracker staining of mouse primary astrocytes (lysosomal biogenesis); type: cell-based; settings: 24 h
Experimental: [The procedure below names another cell line; the source lists this cell line under the same test.] LysoTracker Staining: Fibroblasts cultured to 70-80% confluence were subjected to different stimuli under reduced serum (2%) DMEM medium followed by incubation with 75 nM LysoTracker Red DND99 (Invitrogen) for 45 mins. Cells were then washed thoroughly with filtered PBS and mounted on glass slides and viewed under BX41 fluorescence microscope

TPP1 [3] = experiment: TPP1 protein by Western blot in primary mouse astrocytes; type: cell-based
Experimental: (§1) 12(A) Cells were treated with different concentrations of aspirin for 24 h under serum-free condition followed by Western blot for TPP1. 12(B) Cells were treated with 5 μM aspirin for different time periods under serum-free condition followed by Western blot for TPP1. Actin was run as a house keeping molecule. 12(C) Cells were treated with different concentrations of aspirin for 24 h under serum-free condition followed by TPP1 activity assay using cell extract containing 5 μg of total protein and Ala-Ala-Phe 7-amido-4-methylcoumarin as substrate. Results represent three independent experiments.
Immunoblotting: Western blotting was conducted as described earlier (31, 32) with modifications. Briefly, cells were scraped in 1× RIPA buffer, protein was measured using Bradford reagent and sodium dodecyl sulfate (SDS) buffer was added and electrophoresed on NuPAGE® Novex® 4-12% Bis-Tris gels (Invitrogen) and proteins transferred onto a nitrocellulose membrane (Bio-Rad) using the Thermo-Pierce Fast Semi-Dry Blotter.

TPP1 [4] = experiment: TPP1 activity assay on cell extract of primary mouse astrocytes; type: cell-based; settings: 24 h
Experimental: as §1

Lamp2, Limp2 and Npc1 = experiment: mRNA of lysosomal genes by real-time PCR in mouse primary astrocytes; type: cell-based; settings: 5 μM aspirin, serum-free
Experimental: Quantitative Real-Time PCR: The mRNA quantification was performed using the ABIPrism7700 sequence detection system (Applied Biosystems, Foster City, CA) using SYBR Select master mix (Applied Biosystems). The mRNA expression of the targeted genes was normalized to the level of Gapdh mRNA and data was processed by the ABI Sequence Detection System 1.6 software.

PPRE-driven luciferase activity ([2]; PPARα (−/−) astrocytes): not PPARα (−/−)
SMILES: CC(=O)Oc1ccccc1C(=O)O [aspirin]
toxic effects [1]: gastric ulcers, stomach bleeding, and tinnitus | TFEB protein level (Western blot) (Tfeb): able to increase the protein level of TFEB | PPRE-driven luciferase activity ([2]; PPARβ (−/−) astrocytes): increased PPRE-driven luciferase activity | PPRE-driven luciferase activity ([2]; WT astrocytes): increased PPRE-driven luciferase activity | lysosomal biogenesis (lyso-tracker staining) (mouse primary astrocytes; PPARα (−/−) astrocytes, 5 μM aspirin): not PPARα (−/−) | lysosomal biogenesis (lyso-tracker staining) (mouse primary astrocytes; PPARβ (−/−) astrocytes, 5 μM aspirin): increased lysosomal biogenesis | lysosomal biogenesis (lyso-tracker staining) (mouse primary astrocytes; WT astrocytes, 5 μM aspirin): increased lysosomal biogenesis | lysosomal biogenesis (lyso-tracker staining) (mouse primary astrocytes; astrocytes, aspirin 10 μM, serum-free): not very potent in increasing lysosomal biogenesis | lysosomal biogenesis (lyso-tracker staining) (mouse primary astrocytes; astrocytes, aspirin 2 and 5 μM, serum-free): markedly increased lysosomal biogenesis | earliest time at which increase in TPP1 protein was evident (TPP1 [3]; 5 μM aspirin): 2 h | time of maximum increase in TPP1 protein (TPP1 [3]; 5 μM aspirin): 12 h | TPP1 protein (Western blot), dose (TPP1 [3]; aspirin 2 and 5 μM, 24 h): increase in TPP1 protein | TPP1 activity (TPP1 [4]; aspirin 10 μM): not 10 μM | TPP1 activity (TPP1 [4]; aspirin 2 and 5 μM): increase in TPP1 activity | LAMP2 mRNA expression (real-time PCR), time course (Lamp2, Limp2 and Npc1): time-dependent increase in LAMP2 mRNA
